We go through 22 molecules from patent US20240270741A1 (Cogent Biosciences, Inc., priority 2023, published 2024).

FGFR2, sequence (P21802 399-821 limits assumed): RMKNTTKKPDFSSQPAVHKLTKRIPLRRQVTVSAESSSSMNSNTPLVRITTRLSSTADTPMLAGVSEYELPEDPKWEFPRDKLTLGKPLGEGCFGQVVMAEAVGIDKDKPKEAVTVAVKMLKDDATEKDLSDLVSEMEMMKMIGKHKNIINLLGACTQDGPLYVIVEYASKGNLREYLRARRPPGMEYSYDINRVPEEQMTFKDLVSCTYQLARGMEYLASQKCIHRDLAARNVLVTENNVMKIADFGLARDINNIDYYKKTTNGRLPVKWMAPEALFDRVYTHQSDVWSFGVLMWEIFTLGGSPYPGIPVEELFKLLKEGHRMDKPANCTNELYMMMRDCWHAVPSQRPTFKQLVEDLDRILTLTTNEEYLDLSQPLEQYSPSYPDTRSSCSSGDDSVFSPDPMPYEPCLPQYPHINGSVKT

The first experiment has as its target FGFR2 (Homo sapiens, UniProt P21802). Kind of experiment: FGFR wild type enzyme assay (HTRF KinEASE-TK), FGFR2. The note with it: Enz FGFR2 (nM). (TR-FRET usually uses a lanthanide donor and a delayed reading to cut background.)
Regarding `Cc1c(-c2cc(Sc3ccccn3)c3c(C#N)cnn3c2)cnn1C1CCN(CCO)CC1` [Example 100, 6-(1-(1-(2-hydroxyethyl)piperidin-4-yl)-5-methyl-1H-pyrazol-4-yl)-4-(pyridin-2-ylthio)pyrazolo[1,5-a]pyridine-3-carbonitrile], the IC50 was found to be 5 nM. In other words, the single-digit nanomolar range.
For the molecule `N#Cc1cnn2cc(-c3cnn([C@H]4CCCNC4)c3)cc(Sc3cccc(C(F)F)n3)c12` [Example 75, 4-[[6-(difluoromethyl)-2-pyridyl]sulfanyl]-6-[1-[(3S)-3-piperidyl]pyrazol-4-yl]pyrazolo[1,5-a]pyridine-3-carbonitrile], the IC50 is 22 nM.

Staying with this experiment, now noted: Enz FGFR2 (nM), FGFR2 wild type enzyme.
In turn, `Cc1c(-c2cc(Sc3ccccc3C#N)c3c(C#N)cnn3c2)cnn1C1CCN(Cc2ccccn2)CC1` [Example 267, 4-((2-cyanophenyl)thio)-6-(5-methyl-1-(1-(pyridin-2-ylmethyl)piperidin-4-yl)-1H-pyrazol-4-yl)pyrazolo[1,5-a]pyridine-3-carbonitrile] came in with an IC50 of 0.6 nM. This counts as sub-nanomolar.
On the same count and under the same terms, with `CC(=O)N[C@H]1CC[C@@H](n2cc(-c3cc(Sc4ncccc4C)c4c(C#N)cnn4c3)cn2)CC1` [Example 315, N-((1s,4s)-4-(4-(3-cyano-4-((3-methylpyridin-2-yl)thio)pyrazolo[1,5-a]pyridin-6-yl)-1H-pyrazol-1-yl)cyclohexyl)acetamide] the figure was 3 nM; with `CC(=O)N1CCC(n2ncc(-c3cc(Sc4ncccc4F)c4c(C#N)cnn4c3)c2C)CC1` [Example 152, 6-(1-(1-acetylpiperidin-4-yl)-5-methyl-1H-pyrazol-4-yl)-4-((3-fluoropyridin-2-yl)thio)pyrazolo[1,5-a]pyridine-3-carbonitrile], 2 nM.
Same read-out and setting: with `Cc1c(-c2cc(Sc3ccccc3C#N)c3c(C#N)cnn3c2)cnn1[C@H]1CC[C@@H](NC(=O)C(C)(C)O)CC1` [Example 268, N-((1s,4s)-4-(4-(3-cyano-4-((2-cyanophenyl)thio)pyrazolo [1,5-a]pyridin-6-yl)-5-methyl-1H-pyrazol-1-yl)cyclohexyl)-2-hydroxy-2-methylpropanamide] the figure was 0.4 nM.

Staying with this experiment, now noted: Enz FGFR2 (nM), FGFR2 wild type enzyme assay.
As to `CC(=O)N1CCCC(n2cc(-c3cc(Sc4ccccc4C#N)c4c(C#N)cnn4c3)cn2)CC1` (stereo not shown) [Example 520, 6-(1-(1-acetylazepan-4-yl)-1H-pyrazol-4-yl)-4-((2-cyanophenyl)thio)pyrazolo [1,5-a]pyridine-3-carbonitrile], the IC50 is 0.4 nM.
`N#Cc1ccccc1Sc1cc(-c2cnn([C@H]3CCCNC3)c2F)cn2ncc(C#N)c12` [Example 625, (S)-4-((2-cyanophenyl)thio)-6-(5-fluoro-1-(piperidin-3-yl)-1H-pyrazol-4-yl)pyrazolo[1,5-a]pyridine-3-carbonitrile] yielded an IC50 of 1 nM.
In turn, `Cc1c(-c2cc(Sc3ncc(F)cc3F)c3c(C#N)cnn3c2)cnn1C1CCN(C(=O)[C@H](C)O)CC1` [Example 342, (S)-4-((3,5-difluoropyridin-2-yl)thio)-6-(1-(1-(2-hydroxypropanoyl)piperidin-4-yl)-5-methyl-1H-pyrazol-4-yl)pyrazolo[1,5-a]pyridine-3-carbonitrile] returned an IC50 of 6 nM.
The molecule `N#Cc1cc(F)ccc1Sc1cc(-c2cnn(-c3cn[nH]c3)c2)cn2ncc(C#N)c12` [Example 546, 6-(1′H-[1,4′-bipyrazol]-4-yl)-4-((2-cyano-4-fluorophenyl)thio)pyrazolo [1,5-a]pyridine-3-carbonitrile] yielded an IC50 of 6 nM.
With `CN1CCN(c2ccc(-c3cc(Sc4ncccc4F)c4c(C#N)cnn4c3)cn2)CC1=O` [Example 656, 4-((3-fluoropyridin-2-yl)thio)-6-(6-(4-methyl-3-oxopiperazin-1-yl)pyridin-3-yl)pyrazolo[1,5-a]pyridine-3-carbonitrile], the IC50 amounted to 2 nM.
Molecule `Cn1cc(-c2cc(Sc3ccccc3C#N)c3c(C#N)cnn3c2)cn1` [Example 468, 4-((2-cyanophenyl)thio)-6-(1-methyl-1H-pyrazol-4-yl)pyrazolo[1,5-a]pyridine-3-carbonitrile] came in with a concentration for half-maximal inhibition (IC50) of 1 nM.
Regarding `CNC(=O)c1nn([C@H]2CCCNC2)cc1-c1cc(Sc2ncccc2F)c2c(C#N)cnn2c1` [Example 508, (S)-4-(3-cyano-4-((3-fluoropyridin-2-yl)thio)pyrazolo[1,5-a]pyridin-6-yl)-N-methyl-1-(piperidin-3-yl)-1H-pyrazole-3-carboxamide], the IC50 came out at 48 nM.
In turn, `N#Cc1ccccc1Sc1cc(-c2cnn(C3CCOCC3)c2)cn2ncc(C#N)c12` [Example 542, 4-((2-cyanophenyl)thio)-6-(1-(tetrahydro-2H-pyran-4-yl)-1H-pyrazol-4-yl)pyrazolo[1,5-a]pyridine-3-carbonitrile] displayed an IC50 of 0.4 nM. This IC50 lies about 120-fold lower than the previous one.
For the molecule `CC(=O)N[C@H]1CC[C@H](n2cc(-c3cc(Sc4ccccc4C#N)c4c(C#N)cnn4c3)cn2)C1` [Example 350, N-((1s,3S)-3-(4-(3-cyano-4-((2-cyanophenyl)thio)pyrazolo [1,5-a]pyridin-6-yl)-1H-pyrazol-1-yl)cyclopentyl)acetamide], half-maximal inhibition (IC50) required 0.5 nM. This IC50 and that of the molecule before are within 1.5-fold of each other.
`N#Cc1cc(F)ccc1Sc1cc(-c2cnn(C3CCN(C(=O)CO)CC3)c2)cn2ncc(C#N)c12` [Example 445, 4-((2-cyano-4-fluorophenyl)thio)-6-(1-(1-(2-hydroxyacetyl)piperidin-4-yl)-1H-pyrazol-4-yl)pyrazolo[1,5-a]pyridine-3-carbonitrile] displayed a half-maximal inhibitory concentration (IC50) of 1 nM.
In turn, `N#Cc1ccccc1Sc1cc(-c2cnn(C3CCS(=O)(=O)CC3)c2)cn2ncc(C#N)c12` [Example 367, 4-((2-cyanophenyl)thio)-6-(1-(1,1-dioxidotetrahydro-2H-thiopyran-4-yl)-1H-pyrazol-4-yl)pyrazolo[1,5-a]pyridine-3-carbonitrile] had an IC50 of 0.4 nM.
Molecule `N#Cc1ccccc1Sc1cc(-c2cnn(C3CCN(C(=O)CO)CC3)c2)cn2ncc(C#N)c12` [Example 446, 4-((2-cyanophenyl)thio)-6-(1-(1-(2-hydroxyacetyl)piperidin-4-yl)-1H-pyrazol-4-yl)pyrazolo[1,5-a]pyridine-3-carbonitrile] displayed an IC50 of 0.5 nM. This IC50 and that of the molecule before are within 1.5-fold of each other.
Same read-out and setting: then `CC(=O)N1CC[C@@H](n2cc(-c3cc(Sc4ccccc4C#N)c4c(C#N)cnn4c3)cn2)C1` [Example 582, (R)-6-(1-(1-acetylpyrrolidin-3-yl)-1H-pyrazol-4-yl)-4-((2-cyanophenyl)thio)pyrazolo [1,5-a]pyridine-3-carbonitrile], with 1 nM.
In the case of `CC(=O)N[C@H]1CC[C@@H](n2cc(-c3cc(Sc4ccc(F)cn4)c4c(C#N)cnn4c3)cn2)CC1` [Example 349, N-((1s,4s)-4-(4-(3-cyano-4-((5-fluoropyridin-2-yl)thio)pyrazolo[1,5-a]pyridin-6-yl)-1H-pyrazol-1-yl)cyclohexyl)acetamide], the midpoint of inhibition, the IC50, lay at 3 nM.
For the molecule `N#Cc1ccccc1Sc1cc(-c2ccc(N3CCOCC3)nc2)cn2ncc(C#N)c12` [Example 495, 4-((2-cyanophenyl)thio)-6-(6-morpholinopyridin-3-yl)pyrazolo[1,5-a]pyridine-3-carbonitrile], the IC50 was 1 nM. Against the preceding molecule, the IC50 is about 3-fold lower.
In turn, `Cn1cc(-c2cc(Sc3ccccc3C#N)c3c(C#N)cnn3c2)ccc1=O` [Example 638, 4-((2-cyanophenyl)thio)-6-(1-methyl-6-oxo-1,6-dihydropyridin-3-yl)pyrazolo[1,5-a]pyridine-3-carbonitrile] gave an IC50 of 18 nM. Against the preceding molecule, the IC50 is about 18-fold higher.

As a reminder, the IC50 is the concentration at which inhibition is half-maximal. A lower IC50 goes with greater potency in that assay.
